# Results from publication PMC5120204, “Identification of an orally active small-molecule PTHR1 agonist for the treatment of hypoparathyroidism” (Nature Communications, 2016).
# Experiments:
# OVX rats = test: Bone histomorphometry of lumbar vertebra in OVX rats; type: in vivo, rat
# Procedure: OVX was carried out in 32-week-old female Crl:CD (SD) rats (Charles River Laboratories). Twelve weeks after surgery, lumbar vertebral BMD (L3–L5) was measured in vivo by dual-energy X-ray absorptiometry (DXA) using a DCS-600EX-IIIR bone densitometer (Hitachi Aloka Medical), and the rats were divided into five groups, each with a similar mean value of BMD and body weight. Sample sizes were determined based on previous experiments with hPTHs and a published study with ibandronate and eldecalcitriol in our laboratories[42] (n=7–10). Then, OVX rats were treated once daily intravenously (vehicle or PCO371 at 3 or 10 mg kg^−1) or orally (vehicle or PCO371 at 30 mg kg^−1) or subcutaneously [vehicle or hPTH(1–34) at 0.9 nmol kg^−1] for 12 weeks. Ten to twelve OVX rats were assigned to each dose group. Nine rats were assigned to the sham-operated control group and were treated with vehicle for PCO371. Ten per cent DMSO (Wako Pure Chemical Industries)/10% Kolliphor EL (Sigma-Aldrich) in 10% hydroxypropyl-β-cyclodextrin (HPCD; Nihon Shokuhin Kako)/0.752% glycine (Wako Pure Chemical Industries) buffer was used as vehicle for PCO371, and phosphate-citrate buffer (pH 6.0) was used as vehicle for hPTH(1–34). To label bone-forming surfaces, tetracycline ([…], Nippon Zenyaku Kogyo) was subcutaneously injected on Day 78 and calcein (8 mg kg^−1, Dōjindo Laboratories) was subcutaneously injected on day 83. Under isoflurane anaesthesia, jugular vein blood was collected immediately before and at 1, 2, 6, 10 and 24 h after administration on day 82 to measure plasma concentration of PCO371 or on day 84 to measure serum Ca levels (o-CPC method, Wako Pure Chemical Industries). Urine was collected for 24 h from metabolic cages on days 84–85 to measure urinary collagen type 1 cross-linked C-telopeptide (CTX) by using the RatLaps ELISA System (Immunodiagnostic Systems). Under isoflurane anaesthesia, blood was collected on day 85 from the abdominal aorta to measure serum osteocalcin level by using the Rat Osteocalcin ELISA System (GE Healthcare). The lumbar spine and bilateral femurs were excised after 12 weeks of treatment. The first lumbar vertebra (L1), 3rd to 5th lumbar vertebrae (L3–L5), the right femur, and the right tibia were preserved in 70% ethanol to measure bone histomorphometry and BMD (DCS-600EX; Hitachi Aloka Medical). Measurement of bone histomorphometry was performed by the Ito Bone Histomorphometry Institute (Niigata, Japan). The second lumbar vertebra (L2) was wrapped in saline-soaked gauze and stored at −80 °C until measurement. Ultimate compressive strength (N) of the L2 vertebra was measured by using a mechanical testing machine (TK-252C; Muromachi Kikai).
# PTHR1 = target: T1, PTHR1 (Rattus norvegicus, UniProt P25961); test: cAMP washout assay in UMR-106 cells; type: cell-based; settings: washout 0–120 min
# T1 construct: UMR-106 cells, which natively express rat PTHR1; endogenous in cells; host or cells: UMR-106 (ATCC)
# T1 sequence (P25961 27-591): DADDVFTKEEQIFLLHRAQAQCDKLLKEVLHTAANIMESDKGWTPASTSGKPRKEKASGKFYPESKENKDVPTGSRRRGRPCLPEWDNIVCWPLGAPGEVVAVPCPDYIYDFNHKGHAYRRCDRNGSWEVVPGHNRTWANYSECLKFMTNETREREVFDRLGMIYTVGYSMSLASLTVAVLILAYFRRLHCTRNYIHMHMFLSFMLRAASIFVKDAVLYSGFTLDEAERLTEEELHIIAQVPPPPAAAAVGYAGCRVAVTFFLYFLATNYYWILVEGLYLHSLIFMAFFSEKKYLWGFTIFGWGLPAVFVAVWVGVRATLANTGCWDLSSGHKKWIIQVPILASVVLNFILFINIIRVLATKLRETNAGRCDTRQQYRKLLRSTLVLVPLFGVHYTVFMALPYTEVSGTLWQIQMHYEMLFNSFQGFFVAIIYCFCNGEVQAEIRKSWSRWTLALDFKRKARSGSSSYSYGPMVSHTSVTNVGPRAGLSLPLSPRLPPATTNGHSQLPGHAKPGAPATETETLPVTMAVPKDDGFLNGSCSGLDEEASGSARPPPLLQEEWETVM
# Procedure: The duration of cAMP signalling capacity of PCO371, hPTH(1–34) and LA-PTH (synthesized at American Peptide Company, Inc.) was assessed in a time-course experiment in UMR-106 cells (cAMP washout assay). The cells were treated with assay medium (2 mg m l^−1 BSA, and 2 mmol l^−1 HEPES/McCoy's 5A medium, Life Technologies) alone (basal) or with ligands (1 μmol l^−1 for hPTH(1–34), 0.1 μmol l^−1 for LA-PTH and 0.1 mmol l^−1 for PCO371) in the assay medium for 10 min, washed (t=0), incubated for 0, 30, 60 and 120 min (washout phase), and then further incubated for 5 min in the assay medium containing IBMX (2 mmol l^−1). Incubations were terminated with 50 mmol l^−1 HCl. The cAMP concentrations were determined using a cAMP EIA kit (GE Healthcare).
# [1] = Pharmacokinetics in normal rats; settings: for half-life / AUC(0-inf) / Cmax / Tmax: female, RccHan:WIST, rat, plasma, po
# Procedure: PCO371 was administered at a dose of 2, 6 or 18 mg kg^−1 orally to 7-week-old normal female rats (RccHan: WIST, JLA; three rats for each dose group), or at a dose of 2, 6 or 18 mg kg^−1 orally to 7-week-old female TPTX rats [Crl:CD(SD), Charles River Laboratories; three TPTX rats for each dose group] or at 30 mg kg^−1 orally or 3, 10 mg kg^−1 intravenously to 55-week-old OVX rats as described above. Blood samples were collected at 15 and 30 min, and 1, 2, 4, 8 and 24 h after administration. […] The concentrations of plasma PCO371 were determined by liquid chromatography–tandem mass spectrometry [LC-MS/MS (API-3200 (AB SCIEX), detection limit: 1 ng ml^−1).
# [2] = i.v. 3 mg kg-1 once daily 12 weeks
# [3] = i.v. 10 mg kg-1 once daily 12 weeks
# [4] = p.o. 30 mg kg-1 once daily 12 weeks
structure (smiles),measurement,setting,value
"Cc1cc(N2C(=O)NC(=O)C2(C)C)cc(C)c1CCS(=O)(=O)N1CCC2(CC1)N=C(c1ccc(OC(F)(F)F)cc1)NC2=O [PCO371, 1-{3,5-dimethyl-4-[2-({4-oxo-2-[4-(trifluoromethoxy)phenyl]-1,3,8-triazaspiro[4.5]dec-1-en-8-yl}sulfonyl)ethyl]phenyl}-5,5-dimethylimidazolidine-2,4-dione]",BFR/BS (Bone formation rate/Bone surface),OVX rats; [2],0.144 ± 0.013 mm3 per mm2 per year
same,BRs.R,OVX rats; [2],0.039 ± 0.005 mm2 per mm2 per year
same,BV/TV (Bone volume/Tissue volume),OVX rats; [2],23.2 ± 1.9%
same,ES/BS (Eroded surface/Bone surface),OVX rats; [2],27.6 ± 2.5%
same,MAR (Mineral apposition rate),OVX rats; [2],1.84 ± 0.07 µm per day
same,N.Ob/BS (Number of osteoblasts/Bone surface),OVX rats; [2],11.36 ± 0.71 N per mm
same,N.Oc/BS (Number of osteoclasts/Bone surface),OVX rats; [2],2.55 ± 0.22 N per mm
same,OV/TV (Osteoid volume/Tissue volume),OVX rats; [2],0.465 ± 0.040%
same,ObS/BS (Osteoblast surface/Bone surface),OVX rats; [2],14.98 ± 1.07%
same,OcS/BS (Osteoclast surface/Bone surface),OVX rats; [2],8.49 ± 0.79%
same,Tb. N (Trabecular number),OVX rats; [2],3.07 ± 0.18 N per mm
same,Tb. Sp (Trabecular separation),OVX rats; [2],264 ± 24 µm
same,Tb. Th (Trabecular thickness),OVX rats; [2],75.1 ± 4.1 µm
same,BFR/BS (Bone formation rate/Bone surface),OVX rats; [3],0.275 ± 0.022 mm3 per mm2 per year
same,BRs.R,OVX rats; [3],0.071 ± 0.008 mm2 per mm2 per year
same,BV/TV (Bone volume/Tissue volume),OVX rats; [3],20.1 ± 1.1%
same,ES/BS (Eroded surface/Bone surface),OVX rats; [3],33.0 ± 1.6%
same,MAR (Mineral apposition rate),OVX rats; [3],2.22 ± 0.06 µm per day
same,N.Ob/BS (Number of osteoblasts/Bone surface),OVX rats; [3],16.09 ± 1.72 N per mm
same,N.Oc/BS (Number of osteoclasts/Bone surface),OVX rats; [3],3.60 ± 0.20 N per mm
same,OV/TV (Osteoid volume/Tissue volume),OVX rats; [3],0.690 ± 0.076%
same,ObS/BS (Osteoblast surface/Bone surface),OVX rats; [3],24.64 ± 2.70%
same,OcS/BS (Osteoclast surface/Bone surface),OVX rats; [3],11.69 ± 0.70%
same,Tb. N (Trabecular number),OVX rats; [3],2.54 ± 0.11 N per mm
same,Tb. Sp (Trabecular separation),OVX rats; [3],322 ± 18 µm
same,Tb. Th (Trabecular thickness),OVX rats; [3],79.2 ± 2.7 µm
same,BFR/BS (Bone formation rate/Bone surface),OVX rats; [4],0.285 ± 0.023 mm3 per mm2 per year
same,BRs.R,OVX rats; [4],0.057 ± 0.006 mm2 per mm2 per year
same,BV/TV (Bone volume/Tissue volume),OVX rats; [4],20.1 ± 1.4%
same,ES/BS (Eroded surface/Bone surface),OVX rats; [4],39.7 ± 1.6%
same,MAR (Mineral apposition rate),OVX rats; [4],2.28 ± 0.08 µm per day
same,N.Ob/BS (Number of osteoblasts/Bone surface),OVX rats; [4],17.55 ± 1.43 N per mm
same,N.Oc/BS (Number of osteoclasts/Bone surface),OVX rats; [4],4.30 ± 0.27 N per mm
same,OV/TV (Osteoid volume/Tissue volume),OVX rats; [4],0.794 ± 0.085%
same,ObS/BS (Osteoblast surface/Bone surface),OVX rats; [4],25.14 ± 2.09%
same,OcS/BS (Osteoclast surface/Bone surface),OVX rats; [4],13.60 ± 0.69%
same,Tb. N (Trabecular number),OVX rats; [4],2.64 ± 0.14 N per mm
same,Tb. Sp (Trabecular separation),OVX rats; [4],315 ± 24 µm
same,Tb. Th (Trabecular thickness),OVX rats; [4],76.0 ± 3.1 µm
same,duration of cAMP-signalling response,PTHR1,much shorter than that of hPTH(1–34)
same,half-life,[1],1.5 to 1.7 h
same,AUC(0-inf),[1]; 2 mg/kg,374 ± 187 ng·h/mL
same,Cmax,[1]; 2 mg/kg,92.5 ± 37.1 ng/mL
same,Tmax,[1]; 2 mg/kg,1.5 ± 0.9 h
same,half-life,[1]; 2 mg/kg,1.5 ± 0.1 h
same,AUC(0-inf),[1]; 6 mg/kg,2360 ng·h/mL
same,Cmax,[1]; 6 mg/kg,727 ± 103 ng/mL
same,Tmax,[1]; 6 mg/kg,1 h
same,half-life,[1]; 6 mg/kg,1.4 ± 0.2 h
same,AUC(0-inf),[1]; 18 mg/kg,18600 ng·h/mL
same,Cmax,[1]; 18 mg/kg,4560 ng/mL
same,Tmax,[1]; 18 mg/kg,1.3 ± 0.6 h
same,half-life,[1]; 18 mg/kg,1.7 ± 0.3 h
same,BA (oral bioavailability),"[1]; normal rats, p.o. 2 mg kg^−1",34%
same,time at which Cmax was attained,"[1]; normal rats, single oral dose, dose range tested",1 to 1.5 h
